From US11976054B2, “Amide derivative and preparation method therefore and use thereof in medicine” (Chengdu Baiyu Pharmaceutical Co., Ltd., priority 2019, dated 2024)

Key:
[1] = test system: Human monocyte cell line THP-1; experiment: Detection of THP-1 cell pyroptosis (Caspase-Glo 1 Inflammasome Assay); format: cell-based; settings: 20 nM PMA 48 h, 1 μg/mL LPS, compound 3 h
Method in brief: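 Differentiated with 20 nM PMA for 48 h (50,000 cells/well), then given serum-free medium with 1 μg/mL LPS and compound in a 10-point, 3-fold series from 10 μM for 3 h at 37 °C. Caspase-1 activity read with Caspase-Glo 1 Inflammasome kit; IC50 calculated.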

[2] = test system: IL-1β release in human PBMCs; experiment: Assay of IL-1β release in human PBMCs; format: cell-based; settings: 10 ng/mL LPS 3 h, compound 0.5 h, 5 mM ATP 1 h, ELISA
Experimental: 5 mL of human venous whole blood from a healthy donor was placed in a Li-heparin tube. PBMCs were isolated and incubated in a culture medium containing 10 ng/mL LPS at 37° C./5% CO2 for 3 h. Cells were plated in a 96-well plate at 50 μL per well. 25 μL of compound or solvent control was added to each well and 3-fold diluted in gradient from a maximum concentration of 10 μM, and 8 gradient concentrations were set. The mixtures were incubated for 0.5 h. 25 μL of ATP at a final concentration of 5 mM was added to each well, and the resulting mixtures were incubated for 1 h. After the incubation, the mixtures were centrifuged at 1500 rpm for 20 min, and the supernatant was collected to detect the expression level of […] by ELISA (BD, Human IL-1β ELISA Set II, Cat #557953). IC50 was calculated using GraphPad Prism7.0 software. The results are shown in Table 2, which indicate that: the compounds disclosed herein down-regulate release of mature IL-1β by inhibiting the activity of Caspase-1, and the IC50 is <50 nM.

[3] = Pharmacokinetic analysis of compounds in rats; format: in vivo, SD rats; settings: for F %: po 10 mg/kg vs iv 1 mg/kg
Experimental: Healthy adult SD rats weighing 180-220 g were fasted (free access to water) overnight and divided into tail vein administration group and intragastric administration group. The tail vein administration group was subjected to blood collection of 0.1 mL from orbital venous plexus before the administration and 5 min, 15 min, 0.5 h, 1 h, 2 h, 4 h, 8 h, 12 h and 24 h after the administration, and plasma was separated out by centrifugation at 4° C. for 5 min and stored at −20° C. for test. The intragastric administration group was subjected to blood collection of 0.1 mL from orbital venous plexus before the administration and 5 min, 15 min, 0.5 h, 1 h, 2 h, 4 h, 8 h, 12 h and 24 h after the administration, and the subsequent treatment procedures were the same as those of the tail vein injection group. The concentration of parent drug in the plasma was determined by LC-MS/MS.

[4] = test system: Rat dorsal air pouch models; experiment: Rat dorsal air pouch pharmacodynamic models (sodium urate); format: in vivo, SD rats; settings: air pouch exudate 5 h after 1% sodium urate; for IL-1β concentration in exudate: ELISA
Experimental: Healthy adult male SD rats weighing 180-220 g were purchased, and rat dorsal air pouch models were constructed after adaptive feeding of the rats. On day 1, day 4 and day 7 of modeling, 20 mL of sterile air was injected subcutaneously into the back of rats by means of injection needles, and the air pouch was maintained at an inflated state. On day 8, 50 mg/kg compound or vehicle control was administered intragastrically. 5 mL of 1% sodium urate suspension was injected into the dorsal air pouch, and air pouch exudate was collected 5 h later. 40 μL of the exudate was taken for leukocyte counting. The remaining exudate was centrifuged at 1500 rpm for 20 min, and the supernatant was collected to detect the expression level of IL-1β by ELISA (BD, Human IL-1β ELISA Set II, Cat #557953).

[5] = Homo sapiens, THP-1, THP-1 pyroptosis
[6] = SD rats, iv (tail vein), 1 mg/kg, plasma
[7] = SD rats, po (intragastric), 10 mg/kg, plasma

C[C@H](c1cc(F)c2c(c1NC(=O)N[S@@](=N)(=O)c1cc(C(C)(C)O)co1)CCC2)C1CC1 (single isomer, unassigned) [Compound 44-2]
IC50 [1, 5]: ≤ 0.1 µM | IC50 ([2]; PBMC): 0.0163 µM | AUC ([3]; SD, rat, in vivo, iv, 1 mg/kg): 1620 ng·h/mL | Vd ([3]; SD, rat, in vivo, iv, 1 mg/kg): 0.537 L/kg | clearance ([3]; SD, rat, in vivo, iv, 1 mg/kg): 10.5 mL/min/kg | half-life ([3]; SD, rat, in vivo, iv, 1 mg/kg): 0.93 h | bioavailability ([3]; SD, rat, in vivo, po): 89.1% | AUC ([3]; SD, rat, in vivo, po, 10 mg/kg): 14500 ng·h/mL | Cmax ([3]; SD, rat, in vivo, po, 10 mg/kg): 6380 ng/mL | half-life ([3]; SD, rat, in vivo, po, 10 mg/kg): 2.4 h

(RS, SC)- and (SS, SC)-N-((5-(1-cyclobutylethyl)-2,3-dihydro-1H-inden-4-yl)carbamoyl)-4-(2-hydroxypropan-2-yl)furan-2-sulfonimidamide [Compound 82-1]
IC50 ([1]; THP-1 pyroptosis): 0.1 to 0.5 µM | IC50 [2]: 0.0052 µM | AUC [3, 6]: 2228 ng·h/mL | Cl [3, 6]: 11.2 mL/min/kg | Vss [3, 6]: 0.379 L/kg | t1/2 [3, 6]: 0.70 h | F % ([3]; SD rats): 74.0% | AUC [3, 7]: 16478 ng·h/mL | Cmax [3, 7]: 5883 ng/mL | t1/2 [3, 7]: 2.3 h

CC(C)(O)c1coc(S(=N)(=O)NC(=O)Nc2c(CC3CCC3)ccc3c2CCC3)c1 (single isomer, unassigned) [Compound 18-2, RS- and SS-N-((5-(cyclobutylmethyl)-2,3-dihydro-1H-inden-4-yl)carbamoyl)-4-(2-hydroxypropan-2-yl)furan-2-sulfonimidamide]
IC50 ([1]; THP-1 pyroptosis): ≤ 0.1 µM | IC50 [2]: 0.0112 µM | AUC ([3]; rat, in vivo, iv, 1 mg/kg): 3691 ng·h/mL | Cl ([3]; rat, in vivo, iv, 1 mg/kg): 5.6 mL/min/kg | Vss ([3]; rat, in vivo, iv, 1 mg/kg): 0.346 L/kg | t1/2 ([3]; rat, in vivo, iv, 1 mg/kg): 0.86 h | AUC ([3]; rat, in vivo, po, 10 mg/kg): 28427 ng·h/mL | Cmax ([3]; rat, in vivo, po, 10 mg/kg): 16600 ng/mL | t1/2 ([3]; rat, in vivo, po, 10 mg/kg): 3.1 h | Leukocyte concentration (10^6/mL) ([4]; 50 mg/kg intragastric): 1.72 ± 0.3 10^6/mL | IL-1β concentration in exudate ([4]; 50 mg/kg intragastric): 795.5 ± 232.8 pg/mL

C[C@@H](c1ccc2c(c1NC(=O)NS(=N)(=O)c1cc(C(C)(C)O)co1)CCC2)C1CC1 (mixture of isomers) [Compound 6-1, (RS, RC)- and (SS, RC)-N-((5-(-1-cyclopropylethyl)-2,3-dihydro-1H-inden-4-yl)carbamoyl)-4-(2-hydroxypropan-2-yl)furan-2-sulfonimidamide]
IC50 ([1]; THP-1 pyroptosis): ≤ 0.1 µM | AUC [3, 6]: 6312 ng·h/mL | Cl [3, 6]: 2.7 mL/min/kg | Vss [3, 6]: 0.26 L/kg | t1/2 [3, 6]: 1.6 h | F % ([3]; SD rats): 65.8% | AUC [3, 7]: 41521 ng·h/mL | Cmax [3, 7]: 13900 ng/mL | t1/2 [3, 7]: 2.5 h | Leukocyte concentration (10^6/mL) ([4]; 50 mg/kg intragastric): 1.99 ± 0.4 10^6/mL | IL-1β concentration in exudate ([4]; 50 mg/kg intragastric): 895.7 ± 266.4 pg/mL

COc1cc2c(c(OC)c1OC)-c1ccc(OC)c(=O)cc1[C@@H](NC(C)=O)CC2 [Colchicine, reference compound]
Leukocyte concentration (10^6/mL) ([4]; 30 mg/kg): 3.40 ± 0.7 10^6/mL | IL-1β concentration in exudate ([4]; 30 mg/kg): 1190.9 ± 463.6 pg/mL

C[C@@H](c1cc(F)c2c(c1NC(=O)N[S@@](=N)(=O)c1cc(C(C)(C)O)co1)CCC2)C1CC1 (single isomer, unassigned) [Compound 42-2]
IC50 [1, 5]: ≤ 0.1 µM | IC50 ([2]; PBMC): 0.0032 µM | AUC ([3]; SD, rat, in vivo, iv, 1 mg/kg): 1980 ng·h/mL | Vd ([3]; SD, rat, in vivo, iv, 1 mg/kg): 0.503 L/kg | clearance ([3]; SD, rat, in vivo, iv, 1 mg/kg): 8.6 mL/min/kg | half-life ([3]; SD, rat, in vivo, iv, 1 mg/kg): 0.79 h | bioavailability ([3]; SD, rat, in vivo, po): 87.2% | AUC ([3]; SD, rat, in vivo, po, 10 mg/kg): 17300 ng·h/mL | Cmax ([3]; SD, rat, in vivo, po, 10 mg/kg): 8500 ng/mL | half-life ([3]; SD, rat, in vivo, po, 10 mg/kg): 2.1 h

CC(c1ccc2c(c1NC(=O)NS(=N)(=O)c1cc(C(C)(C)O)co1)CCC2)C1CC1 (racemic) [Compound 8-1, (RS, SC)- and (SS, SC)-N-((5-(1-cyclopropylethyl)-2,3-dihydro-1H-inden-4-yl)carbamoyl)-4-(2-hydroxypropan-2-yl)furan-2-sulfonimidamide]
IC50 ([1]; THP-1 pyroptosis): ≤ 0.1 µM | IC50 [2]: 0.0263 µM | AUC [3, 6]: 2557 ng·h/mL | Cl [3, 6]: 6.8 mL/min/kg | Vss [3, 6]: 0.296 L/kg | t1/2 [3, 6]: 0.74 h | F % ([3]; SD rats): 56.2% | AUC [3, 7]: 14367 ng·h/mL | Cmax [3, 7]: 6397 ng/mL | t1/2 [3, 7]: 2.4 h | Leukocyte concentration (10^6/mL) ([4]; 50 mg/kg intragastric): 2.25 ± 0.5 10^6/mL | IL-1β concentration in exudate ([4]; 50 mg/kg intragastric): 1522.5 ± 313.2 pg/mL

Cc1oc(S(=N)(=O)NC(=O)Nc2c(CC3CCC3)ccc3c2CCC3)cc1C(C)(C)O (stereo not drawn) [Compound 21-1, RS- and SS-N-((5-(cyclobutylmethyl)-2,3-dihydro-1H-inden-4-yl)carbamoyl)-4-(2-hydroxypropan-2-yl)-5-methylfuran-2-sulfonimidamide]
IC50 ([1]; THP-1 pyroptosis): ≤ 0.1 µM | IC50 [2]: 0.0262 µM | AUC ([3]; rat, in vivo, iv, 1 mg/kg): 2404 ng·h/mL | Cl ([3]; rat, in vivo, iv, 1 mg/kg): 7.4 mL/min/kg | Vss ([3]; rat, in vivo, iv, 1 mg/kg): 0.371 L/kg | t1/2 ([3]; rat, in vivo, iv, 1 mg/kg): 0.65 h | AUC ([3]; rat, in vivo, po, 10 mg/kg): 37246 ng·h/mL | Cmax ([3]; rat, in vivo, po, 10 mg/kg): 12717 ng/mL | t1/2 ([3]; rat, in vivo, po, 10 mg/kg): 2.3 h
